Columns and labels:
DR5 = experiment: Death receptor expression in HT29 cells after 2DG: DR5; assay type: cell-based, human; settings: HT29 cells after treatment with 2DG
Protocol: (§1) TRAIL mediates its effects by binding to cell surface death receptors 4 and 5 (DR4, DR5). This initiates the extrinsic apoptosis pathway ultimately resulting in cell death. Therefore, it was determined whether 2DG primes tumor cells to TRAIL by altering DR expression in HT29 cells. […] By comparison, DR4 levels were unchanged by 2DG treatment. In addition, increased surface expression of DR5 correlated with TRAIL sensitivity over time.

HT29 cells = experiment: Tumor cell apoptosis in HT29 colon cancer cells (Annexin V flow cytometry; caspase-3 activation); assay type: cell-based, human; settings: for tumor cell apoptosis: HT29 cells, any dose, Annexin V staining, flow cytometry
Protocol: FIG. 2A, HT-29 cells were treated with a general caspase inhibitor (Q-VD-OPh) and simultaneously treated with the indicated compounds. Apoptosis was assessed by Annexin V/PI staining. FIG. 2B, HT-29 cells were stably transfected with CrmA, DN-FADD plasmid constructs (a dominant-negative variant of FAS-associated via death domain protein) or an empty vector. These cell lines, as well as untransfected cells, were then treated with the indicated compounds and apoptosis was assessed by Annexin V/PI staining. n=3, * indicates p<0.05, ** indicates p<0.01, ns indicates p>0.05.
(§2) While this makes TRAIL a promising anti-cancer therapy, there are numerous examples of both inherent and acquired resistance to TRAIL treatment. […] It was posited that this may have been due to either inherent or acquired TRAIL resistance. Therefore, a panel of well-established human colorectal tumor cell lines (HT-29, COLO-205 and SW-620) was analyzed to determine TRAIL sensitivity. […] Therefore, this human cell line was selected for use as a model for in vitro experiments.
To assess the effect of 2DG on HT29 cells, HT29 cells were treated with increasing doses (0-50 mM) of 2DG in vitro.
(§3) To assess the effect of TRAIL on colon (HT29, COLO-205, SW-620), gastric (AGS) and pancreatic (PANC-1) cancer cell lines, cells were treated with increasing doses (0, 6.25, 12.5, 25, 50 and 100 ng/mL) of TRAIL in vitro.
To determine the mechanism of apoptosis, HT-29 and SW-620 cells were treated every 6 hours with 2DG, TRAIL or 2DG and TRAIL. […] HT-29 cells were also fractionated into cytoplasmic and membrane-heavy fractions, with COXIV as a marker of the membrane heavy fraction and beta actin as a loading control.
as §1

DR4 = experiment: Death receptor expression in HT29 cells after 2DG: DR4; assay type: cell-based, human; settings: HT29 cells after treatment with 2DG
Protocol: as §1

[1] = clinical trials; cited from earlier work
SW-620 = experiment: Tumor cell apoptosis in SW-620 colon cancer cells (Annexin V flow cytometry; caspase-3 activation); assay type: cell-based, human; settings: TRAIL 0-100 ng/mL, any dose, Annexin V staining
Protocol: as §2, §3

[2] = test system: AGS gastric cancer cell line; experiment: Tumor cell apoptosis in AGS gastric cancer cell line (Annexin V flow cytometry; caspase-3 activation); assay type: cell-based; settings: TRAIL 0-100 ng/mL, any dose, Annexin V staining
Protocol: as §3

COLO-205 = experiment: Tumor cell apoptosis in COLO-205 colon cancer cells (Annexin V flow cytometry); assay type: cell-based, human; settings: TRAIL 0-100 ng/mL, any dose, Annexin V staining
Protocol: as §2, §3

[3] = test system: PANC-1 pancreatic cancer cell line; experiment: Tumor cell apoptosis in PANC-1 pancreatic cancer cell line (Annexin V flow cytometry; caspase-3 activation); assay type: cell-based; settings: TRAIL 0-100 ng/mL, any dose, Annexin V staining
Protocol: as §3

[4] = test system: human cancer patients with various tumor histologies; settings: phase I trial, cited from earlier work

In the case of `OCC1OC(O)CC(O)[C@@H]1O` (stereo in doubt) [2DG, 2-deoxy-D-glucose], the “DR5 mRNA level” value (DR5) is reported as “upregulated”, the “DR5 total protein level” value (DR5) is reported as “upregulated” and the tumor cell apoptosis (HT29 cells; 2DG 0-50 mM) is reported as ≤ 5%. The DR4 levels (DR4) was “unchanged” and the tolerability [1] was “well-tolerated”.
With `CC(=O)N[C@@H](CS)C(=O)O` [N-acetylcysteine] the “effect on cytotoxicity of 2DG and oxaliplatin” value (human colon cancer cells) was “can abrogate this cytotoxicity”.
For `CC(C)[C@H](NC(=O)c1ccc2ccccc2n1)C(=O)N[C@@H](CC(=O)O)C(=O)COc1c(F)cccc1F` [Q-VD-OPh], the “effect of caspase blockade on anti-tumor effect of 2DG and TRAIL” value (HT29 cells; HT-29, simultaneous treatment with 2DG and TRAIL, Annexin V/PI staining, FIG. 2A) was “inhibited the anti-tumor effect of the combination treatment”.
In the case of “TRAIL: TNF-related apoptosis-inducing ligand; cytokine that causes apoptosis by binding death receptors DR4 and DR5”, the tumor cell apoptosis (HT29 cells; TRAIL 0-100 ng/mL) is reported as ≤ 12%, the “TRAIL sensitivity (TRAIL-induced apoptosis)” value (HT29 cells; HT-29 cell line, maximal doses) is reported as “resistance to TRAIL at even maximal doses” and the tumor cell apoptosis (SW-620) is reported as ≤ 12%. For the same molecule, the tumor cell apoptosis [2] was ≤ 12%, the tumor cell apoptosis (COLO-205) was ≤ 12% and the tumor cell apoptosis [3] was ≤ 12%. The tolerability [4] was “well-tolerated” and the objective tumor response ([4]; patients with colorectal cancer) was “none of the patients with colorectal cancer had an objective tumor response”.

Reference: patent US9757457B2, “Use of 2-deoxy-D-glucose to sensitize cancer cells to an agent that activates the extrinsic apoptotic pathway” (The Board of Trustees of the University of Illinois, priority 2013, dated 2017)
